Measured values published in PubChem BioAssay (NCI).
Several values for one entry are separate records, joined by “and”; a condition that tells them apart may be missing. Equal entries are not always repeated.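 How tested: cells in 96-well plates exposed to compound for 48 hours at five concentrations. At the GI50, growth is halved. TGI is the concentration that stops growth completely.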

Columns and labels:
Assay in all cases: NCI tumour cell line growth inhibition, 48 h
A549 NSCLC = tested on: A549 NSCLC
HS 578T breast = tested on: HS 578T breast
IGROV1 ovarian = tested on: IGROV1 ovarian
LOX IMVI melanoma = tested on: LOX IMVI melanoma
MALME-3M melanoma = tested on: MALME-3M melanoma
RPMI-8226 leukemia = tested on: RPMI-8226 leukemia
RXF 393 renal = tested on: RXF 393 renal
SNB-75 CNS = tested on: SNB-75 CNS
SW-620 colon = tested on: SW-620 colon
UACC-62 melanoma = tested on: UACC-62 melanoma

SMILES	TGI (A549 NSCLC)	TGI (HS 578T breast)	TGI (IGROV1 ovarian)	TGI (LOX IMVI melanoma)	TGI (MALME-3M melanoma)	TGI (RPMI-8226 leukemia) [µM]	TGI (RXF 393 renal)	TGI (SNB-75 CNS)	TGI (SW-620 colon)	TGI (UACC-62 melanoma)	GI50 (SNB-75 CNS)
CN(CCn1cnc2c1c(=O)n(C)c(=O)n2C)C1CCCCC1	> 100 µM	> 100 µM	> 100 µM	> 100 µM	> 100 µM	> 100	> 100 µM	> 100 µM	> 100 µM	> 100 µM	–
CCCCCCCCOC1C(O)C(O)C(O)C(O)C12CO2 (centres undefined)	> 100 µM	> 100 µM	> 100 µM	> 100 µM	> 100 µM	> 100	> 100 µM	> 100 µM	> 100 µM	> 100 µM	–
CC(=O)OC(/C=C/c1ccccc1)P1(=O)N(CC(C)(C)C)[C@@H]2CCCC[C@H]2N1CC(C)(C)C (some centres undefined)	17.3 µM and 18.5 µM	24.5 µM and 27.1 µM	19.6 µM and 19.3 µM	24 µM and 24.5 µM	26.8 µM and 26.4 µM	12.1	22 µM and 14.5 µM	12.8 µM and 4.17 µM	31.3 µM and 20.7 µM	21.1 µM and 23.2 µM	3.91 µM and 0.684 µM
NC(N)=N/N=C/c1nc2n(c1[N+](=O)[O-])CCS2	> 100 µM	> 100 µM	> 100 µM	92.6 µM	30.8 µM	> 100	65.3 µM	60.2 µM	> 100 µM	> 100 µM	–
S=C(NC1=NCC(CN2CCN(c3ccccc3)CC2)O1)Nc1ccccc1 (centres undefined)	> 100 µM	> 100 µM	> 100 µM	61.8 µM	> 100 µM	> 100	> 100 µM	> 100 µM	> 100 µM	> 100 µM	–
C1CCC2(CC1)O[C@@H]1[C@@H](O2)[C@@H](O[C@H]2O[C@@H]3COC4(CCCCC4)O[C@H]3[C@@H]3OC4(CCCCC4)O[C@@H]23)O[C@@H]2COC3(CCCCC3)O[C@@H]12	> 100 µM	> 100 µM	> 100 µM	> 100 µM	> 100 µM	> 100	> 100 µM	> 100 µM	> 100 µM	> 100 µM	–
CC(=O)OCCOCn1c2c(c(=S)[nH]c1=O)CCC2	> 100 µM	> 100 µM	> 100 µM	> 100 µM	> 100 µM	> 100	> 100 µM	> 100 µM	> 100 µM	–	–
O=C1CCC2(CC1CC(Sc1ccccc1)Sc1ccccc1)OCCO2 (centres undefined)	> 100 µM	88.1 µM	> 100 µM	> 100 µM	84.7 µM	> 100	> 100 µM	> 100 µM	> 100 µM	> 100 µM	–
Nc1nc(Cl)c(N)c(NCC2(CO)CC(OCc3ccccc3)C2)n1 (centres undefined)	> 100 µM	> 100 µM	> 100 µM	> 100 µM	> 100 µM	> 100	> 100 µM	> 100 µM	> 100 µM	> 100 µM	–
O=CN1CCN(C(=O)c2ccc(Cl)cc2Cl)C1=S	> 100 µM	> 100 µM	> 100 µM	> 100 µM	> 100 µM	> 100	> 100 µM	85.5 µM	> 100 µM	> 100 µM	–
Nc1ncnc2c1nnn2C1C=CC(COS(N)(=O)=O)C1 (centres undefined)	> 100 µM	8.3 µM	> 100 µM	17.8 µM	> 100 µM	50.7	86 µM	39.3 µM	> 100 µM	35.4 µM	–
COC(=O)CCC(=O)NC1=C(Nc2ccc(OC)cc2)C(=O)c2ccccc2C1=O	29.7 µM	72.6 µM	26 µM	16.1 µM	4.69 µM	75.2	67 µM	21.2 µM	29.7 µM	7.67 µM	–
CCCCc1ccc(Nc2nc3c(ncn3C3CC(O)C(CN=[N+]=[N-])O3)c(=O)[nH]2)cc1 (centres undefined)	> 100 µM	> 100 µM	> 100 µM	> 100 µM	> 100 µM	> 100	> 100 µM	> 100 µM	> 100 µM	> 100 µM	–
COC(=O)C(Cc1c(C2Nc3ccccc3C2CC(NC(=O)CNC(C)=O)C(=O)OC)[nH]c2ccccc12)NC(=O)CNC(C)=O (centres undefined)	> 100 µM	> 100 µM	> 100 µM	> 100 µM	> 100 µM	> 100	> 100 µM	> 100 µM	> 100 µM	> 100 µM	–
CCCN1C(=O)CC(C)N(Cc2ccccc2Cl)C1=S (centres undefined)	> 100 µM	> 100 µM	> 100 µM	54.9 µM	56.7 µM	70.4	21.9 µM	–	> 100 µM	46.3 µM	–
CC[C@H](O)[C@H](C)C=C1SCCCS1	> 100 µM	> 100 µM	> 100 µM	> 100 µM	> 100 µM	> 100	> 100 µM	> 100 µM	> 100 µM	> 100 µM	–
COc1ccc2nc3c([N+](=O)[O-])ccc4c3c(c2c1)NCCN4CCO	2.68 µM	2.79 µM	3.22 µM	0.792 µM	1.45 µM	2.61	1.78 µM	1.88 µM	3.1 µM	1.07 µM	–
